Source: publication PMC11247118 (CPT: Pharmacometrics & Systems Pharmacology, 2024)
Read-outs that look alike come from different tables or passages of the source.

Columns and labels:
[1] = test system: Gram-positive bacteria / MRSA; conditions: cited from earlier work
[2] = Population pharmacokinetic model; conditions: for CLp, typical value of apparent clearance / Vp, typical value of apparent volume of distribution: estimate (% standard error), SEM
[3] = cited from earlier work
Gram-positive bacteria = conditions: 29 of 180 cases with Gram-positive isolates detected
[4] = test system: Patient bacterial isolates (Gram-positive); assay: MIC of vancomycin for patient bacterial isolates; format: cell-based; conditions: majority of clinical isolates of the two study institutions, broth microdilution
[5] = cited from earlier work; remark: listed apart in the source
[6] = Therapeutic drug monitoring of serum vancomycin concentrations; conditions: serum TDM samples, SD
[7] = bootstrap of final model, 996/1000 runs successful

CLage>2, bootstrap median [2, 7]: 2.56 L/h | CLage≤2, bootstrap median [2, 7]: 1.97 L/h | Vd, bootstrap median [2, 7]: 22.2 L | CLp, typical value of apparent clearance ([2]; candidate Model I, 3/4 allometric model): 2.09 (4.3) L/h | Vp, typical value of apparent volume of distribution ([2]; candidate Model I): 40.9 (14.6) L | CLp, typical value of apparent clearance ([2]; candidate Model II, allometric model): 2.10 (4.0) L/h | Vp, typical value of apparent volume of distribution ([2]; candidate Model II): 23.8 (28.2) L | Vp, typical value of apparent volume of distribution ([2]; candidate Model III): 40.8 (14.5) L | Vp, typical value of apparent volume of distribution ([2]; candidate Model IV): 23.0 (25.5) L | CLp, typical value of apparent clearance ([2]; candidate Model V, BW-dependent exponent model): 2.30 (5.0) L/h | Vp, typical value of apparent volume of distribution ([2]; candidate Model V): 23.3 (27.1) L | CLp, typical value of apparent clearance ([2]; candidate Model VI, age-dependent exponent model): 2.42 (5.5) L/h | Vp, typical value of apparent volume of distribution ([2]; candidate Model VI): 22.7 (25.5) L | weight-adjusted typical CL ([2]; final PPK model, age >2 years old): 3.6 mL/min/kg | CLage>2, final model estimate ([2]; final PPK model, age >2 years old, typical value at BW 12 kg and CLcr 75 mL/min): 2.59 L/h | weight-adjusted typical CL ([2]; final PPK model, age ≤2 years old): 2.75 mL/min/kg | CLage≤2, final model estimate ([2]; final PPK model, age ≤2 years old, typical value at BW 12 kg and CLcr 75 mL/min): 1.98 L/h | Vd, final model estimate ([2]; final PPK model, typical value at BW 12 kg): 22.4 L | MIC values of clinical isolates [4]: ≤ 1 µg/mL | Vancomycin concentration, mean ± standard deviation ([6]; model validation dataset N = 67, 76 concentrations): 6.89 ± 2.63 mg/L | Vancomycin concentration, mean ± standard deviation ([6]; model-building dataset N1 = 210, 272 concentrations): 8.7 ± 6.0 mg/L | Vancomycin concentration, mean ± standard deviation ([6]; model-building dataset N2 = 176, 249 concentrations): 8.27 ± 5.85 mg/L | Vancomycin concentration, mean ± standard deviation ([6]; model-building dataset Total = 386, 521 concentrations): 8.52 ± 5.93 mg/L
SMILES: CN[C@H](CC(C)C)C(=O)N[C@H]1C(=O)N[C@@H](CC(N)=O)C(=O)N[C@H]2C(=O)N[C@H]3C(=O)N[C@H](C(=O)N[C@H](C(=O)O)c4cc(O)cc(O)c4-c4cc3ccc4O)[C@H](O)c3ccc(c(Cl)c3)Oc3cc2cc(c3O[C@@H]2O[C@H](CO)[C@@H](O)[C@H](O)[C@H]2O[C@H]2C[C@](C)(N)[C@H](O)[C@H](C)O2)Oc2ccc(cc2Cl)[C@H]1O [vancomycin]
microbiological eradication rate ([1]; multicenter study, Chinese children, 37.79 ± 11.31 mg/kg/day): > 80% | overall clinical effective rate ([1]; pediatric patients with median AUC/MIC between 200 and 300, ref 40 (Shen et al.)): 92.6% | AUC0-24 threshold for predicting vancomycin-associated nephrotoxicity ([3]; Chinese children): < 537 µg·h/mL | AUC0-24 threshold for predicting vancomycin-associated nephrotoxicity ([3]; Chinese neonates): < 480 µg·h/mL | treatment failure rate (Gram-positive bacteria): 16% | fraction eliminated by the renal system and excreted in the urine as a prototype ([5]; after intravenous administration): approximately 90% | inter-individual variability (IIV) of clearance (CL) ([5]; reported to reach as high as): ≤ 99.2% | known range of weight-adjusted CL in pediatric patients ([5]; summarized in a systematic review): 0.258 to 4.25 mL/min/kg
